Results: patent US20260137692A1, “METHODS AND COMPOSITIONS FOR TREATING AND MANAGING ALZHEIMER'S DISEASE” (PHARMATROPHIX, INC., priority 2024, published 2026)

System: patients with mild to moderate Alzheimer's Disease
Assay: Phase IIa trial: ADAS-Cog
Format: in vivo, human
Conditions: ITT
Protocol: Exploratory outcome evaluations involved the assessment of cognitive and clinical function (Table 4). […] Items from the Neurological Testing Battery (NTB), together with the ADAS-Cog 13, Spatial Navigation Test (AMUNET) were performed at Baseline, Week 12 and Week 26 (Visits 2, 4 and 5). While the MMSE was used primarily as a screening and baseline disease staging tool, its repeated administration at Week 26 provided an additional exploratory cognitive outcome measure. The Geriatric Depression Scale (GDS) was assessed at each Visit (Screening, Baseline, Week 4, 12, 26: Visits 1-5) and the Clinical Global Impression test (CGI) with Severity was assessed at Screening (Visit 1) and then the Improvement was subsequently assessed at Weeks 12 and 26 (Visits 4 and 5). For each test, whether categorical or numeric, all raw scores were considered interval in nature. The change from Screening (Week −8) or Baseline (Week 0) was therefore be derived for each patient. Actual values at each Visit and Changes from Screening/Baseline were summarized.
Alzheimer's Disease Assessment Scale-13 items (total score=85) is used as a parameter for exploratory outcome analysis. ADAS-cog is a psychometric instrument designed to evaluate the severity of cognitive and non-cognitive behavioral dysfunctions characteristic of people with AD. The cognitive portion assesses memory, language and praxis functions. Most items are rated on a scale of 0 to 5, where 0 indicates no impairment and 1 to 5 indicates very mild (1), mild (2), moderate (3), moderately severe (4) or severe impairment (5) respectively. Other items are rated on the presence or absence of a characteristic number of errors or severity of errors. The total scores from the ADAS-cog sub-scales range from 0 (no impairment) to 85 (errors in all sub-tests).
A positive (i.e., increasing) change of the score indicates cognitive worsening.
ADAS-Cog was assessed at Visits 2, 4 and 5, as well as at the early discontinuation Visit, if applicable.

## CC[C@H](C)[C@H](N)C(=O)NCCN1CCOCC1 [LM11A-31-BHS, Tris[(2S,3S)-2-amino-3-methyl-N-(2-morpholinoethyl)pentanamide]tetra(monohydrogensulfate), monosulfate]
200 mg group, 26-week treatment period, not statistically significant
  progression compared to placebo in the LS mean ADAS-cog-13 score, increased by: 7.1%
200 mg group, 26 weeks
  ADAS-cog-6 score progression compared to placebo, increased by: 7.1%
  progression compared to placebo of the LS mean ADAS-cog-11 score, decreased by: 9.8%
400 mg group, 26-week treatment period, not statistically significant
  progression compared to placebo in the LS mean ADAS-cog-13 score, decreased by: 35.3%
400 mg group, 26 weeks
  ADAS-cog-6 score progression compared to placebo, decreased by: 31.4%
  progression compared to placebo of the LS mean ADAS-cog-11 score, decreased by: 42.7%
